From patent publication US20260315431A1, “NANOMATERIAL ENCAPSULATED BIOFILM INHIBITORS FOR DENTAL CARIES TREATMENT” (THE UAB RESEARCH FOUNDATION, priority 2023, published 2026)
Entries after “also recorded” stand apart in the source; their conditions may differ. Marks after values point to notes of the source that are not given here.

Columns and labels:
[1] = system: rat oral microbiome; test: Rat oral microbiome (16S rRNA gene sequencing); assay type: in vivo, Fischer 344 rats; settings: for overall effect on rat oral microbiome / oral microbiome composition, phylum level: 2-week and 4-week treatment; for oral microbiome composition, phylum level / oral microbiome composition, family level within Firmicutes: 100 μM; for oral microbiome composition, family level within Firmicutes: 4-week treatment; for beta diversity (Bray-Curtis, PERMANOVA): P-value>0.05 vs native community
Description: During this study, rat oral microbiome samples were collected from individual rats (n=5) at the following time points: before the experiment (Native), after inoculation of S. mutans and the start of a caries-promoting diet (Sm+CPD), after two weeks of treatment with the compound (2-week), and at the end of the study (END). The microbiota between the groups at different time points was analyzed for oral bacterial composition and abundance. Oral swabs collected before and after interventions with these compounds were analyzed using the 16s rRNA gene sequencing method. Both ‘within’ (alpha diversity) and ‘between’ (beta diversity) sample diversities were calculated over time for each treatment group using MicrobiomeAnalyst 2.0^[55].
(§1) We used Fischer 344 rats that were bred and maintained in trexler isolators for this experiment. Male and female rat pups were removed from isolators at 20 days of age and randomly assigned into treatment groups of 5 rats/group in cages with filter tops. Rats were then infected with S. mutans UA159 strain by oral swabbing daily for four consecutive days with a fresh overnight culture of S. mutans UA159. Rats were provided with caries promoting Teklad Diet 305 containing […] (Harlan Laboratories, Inc., Indianapolis, IN) and sterile drinking water ad libitum. Oral swabs were taken 5 days post-infection and plated on Todd Hewitt (TH) agar plates and incubated at 37° C. in an environment of 5% CO2 in the air to confirm colonization. Rats were weighed at weaning and then weekly throughout the experiment. One-week post-infection, the molars of the rats were brushed twice daily for 4 weeks with the test compounds using camel-hair brushes. Four treatment groups used in this study were: 1) HA5 (100 μM); 2) […] (100 μM); 3) NaF (250 ppm); and 4) infected untreated rats. Drinking water was withheld for 60 min following each treatment with the compound. Animals were weighed at weaning and at the termination of the experiment. On day 60, the rats were sacrificed using CO2 followed by cervical dislocation or bilateral thoracotomy. The mandibles were surgically removed and cleaned of excess tissue to assess the level of bacteria present and the extent of caries formation. The right mandible from each rat was placed in a tube containing phosphate buffer (3 mL), placed on ice and sonicated (10 sec) to release bacteria from the molars. Each sample was serially diluted, plated on blood (BAP) and mitis-salivarius (MS) agar plates and incubated in an environment of 5% CO2 in air at 37° C. to quantify the level of total bacteria and S. mutans present in the plaque. The right and left mandibles from each rat were then placed in 95% ethanol for 24 h. The mandibles will be cleaned and stained overnight with murexide solution. After drying, the mandibles were sectioned and scored for caries activity using the Keyes method Caries scores were recorded for the buccal, sulcal and proximal molar surfaces individually so that differences among the surfaces can be distinguished. Statistical significance in the mean caries scores, colony-forming units (CFU)/mandible and body weights between groups of rats were determined by one-way analysis of variance (ANOVA) with the Tukey-Kramer multiple comparison test using the InStat program (GraphPad Prism 10.0.2.). When determining the statistical significance between the two groups, an unpaired t-test was applied. Differences between groups were considered significant at a P-value<0.05.
In addition to recording buccal, sulcal and proximal molar surface caries scores and colony-forming units (CFU)/mandible and body weights between groups of rats as described above, plaque samples from rats treated or untreated were collected and DNA was extracted from each sample and used for PCR amplification of ~430 bp amplicons of 16S ribosomal DNA hypervariable regions V3 and V4, Illumina adaptors, and molecular barcodes as described^[66]. […]

[2] = Body weight of animals, HA5 / HA6 study; assay type: in vivo, Fischer 344 rats; settings: for Weight: 100 μM (NaF 250 ppm); for weight loss: 4-week treatment, 100 μM
Text: as §1

[3] = system: S. mutans UA159; test: Gnotobiotic rat model of dental caries (HA5 / HA6 study, Example 2); assay type: in vivo, Fischer 344 rats infected with S. mutans UA159; parameters: key to Buccal Mean Caries Scores (±SEM) E / Buccal Mean Caries Scores (±SEM) Ds / Buccal Mean Caries Scores (±SEM) Dm / Buccal Mean Caries Scores (±SEM) Dx / Sulcal Mean Caries Scores (± SEM) E / Sulcal Mean Caries Scores (± SEM) Ds / Sulcal Mean Caries Scores (± SEM) Dm / Sulcal Mean Caries Scores (± SEM) Dx / Proximal Mean Caries Scores (± SEM) E / Proximal Mean Caries Scores (± SEM) Ds: Keyes method caries scores, mean ± SEM; settings: for effect on bacterial colonization / reduction in caries scores: 4-week treatment, 100 μM; for CFU/mL BAP: Blood agar plate; for CFU/mL BAP / CFU/mL MS / Buccal Mean Caries Scores (±SEM) Dx / Sulcal Mean Caries Scores (± SEM) Dx / Buccal Mean Caries Scores (±SEM) Dm / Sulcal Mean Caries Scores (± SEM) Dm / Buccal Mean Caries Scores (±SEM) Ds / Proximal Mean Caries Scores (± SEM) Ds / Sulcal Mean Caries Scores (± SEM) Ds / Buccal Mean Caries Scores (±SEM) E / Proximal Mean Caries Scores (± SEM) E / Sulcal Mean Caries Scores (± SEM) E: 100 μM (NaF 250 ppm); for CFU/mL MS: Mitis-Salivarius agar; for Buccal Mean Caries Scores (±SEM) Dx / Sulcal Mean Caries Scores (± SEM) Dx: dentinal extensive; for Buccal Mean Caries Scores (±SEM) Dx / Sulcal Mean Caries Scores (± SEM) Dx / Buccal Mean Caries Scores (±SEM) Dm / Sulcal Mean Caries Scores (± SEM) Dm / Buccal Mean Caries Scores (±SEM) Ds / Proximal Mean Caries Scores (± SEM) Ds / Sulcal Mean Caries Scores (± SEM) Ds / Buccal Mean Caries Scores (±SEM) E / Proximal Mean Caries Scores (± SEM) E / Sulcal Mean Caries Scores (± SEM) E: twice daily, 4 weeks, n = 5; for Buccal Mean Caries Scores (±SEM) Dm / Sulcal Mean Caries Scores (± SEM) Dm: dentinal moderate; for Buccal Mean Caries Scores (±SEM) Ds / Proximal Mean Caries Scores (± SEM) Ds / Sulcal Mean Caries Scores (± SEM) Ds: dentinal slight; for Buccal Mean Caries Scores (±SEM) E / Proximal Mean Caries Scores (± SEM) E / Sulcal Mean Caries Scores (± SEM) E: enamel
Description: To understand how these compounds affect the residential bacterial community, we conducted an in vivo evaluation of both HA5 and HA6 and compared to the untreated and NaF-treated rats using a well-established gnotobiotic rat model of dental caries^[50-54]. Treatment groups used in this study were inhibitor HA5 (100 μM), inhibitor HA6 (100 μM), and vehicle. A UA159 infection only group served as a negative control and a NaF (250 ppm) served as a positive control.
All rats from the experimental groups and from the control groups were colonized with S. mutans UA159. […] The effect of the treatment on dentinal moderate (Dm) and dentinal extensive (Dx) scores in the proximal area were not recorded as there were no observable caries lesions in both control and the treated groups. The observed reductions in caries scores by HA5 or HA6 were slightly lower than the positive control NaF treatment. However, it should be noted that the concentration of NaF (250 ppm=5.95 mM) is about 59-fold higher than the inhibitor treatment dose of 100 μM.
as §1

Compound	overall effect on rat oral microbiome [1]	oral microbiome composition, phylum level [1]	oral microbiome composition, family level within Firmicutes [1]	beta diversity (Bray-Curtis, PERMANOVA) [1]	Weight [2]	weight loss [2]	effect on bacterial colonization [3]	reduction in caries scores [3]	CFU/mL BAP [3]	CFU/mL MS [3]	Buccal Mean Caries Scores (±SEM) Dx [3]	Sulcal Mean Caries Scores (± SEM) Dx [3]	Buccal Mean Caries Scores (±SEM) Dm [3]	Sulcal Mean Caries Scores (± SEM) Dm [3]	Buccal Mean Caries Scores (±SEM) Ds [3]	Proximal Mean Caries Scores (± SEM) Ds [3]	Sulcal Mean Caries Scores (± SEM) Ds [3]	Buccal Mean Caries Scores (±SEM) E [3]	Proximal Mean Caries Scores (± SEM) E [3]	Sulcal Mean Caries Scores (± SEM) E [3]	further results
O=C1/C(=C/c2cc(O)c(O)cc2O)Oc2ccccc21 [HA5, 2-[(2′,4′,5′-Trihydroxyphenyl)methylidene]-2,3-dihydro-1-benzofuran-3-one]	without affecting the rat oral microbiome; also recorded: without perturbing the overall rat oral microbiome significantly; also recorded: do not perturb oral microbiome significantly	did not perturb the overall rat oral microbiome at phylum levels significantly	did not perturb the overall rat oral microbiome significantly within this phylum	without any significant deviations	156 ± 16 g	did not experience significant weight loss	did not affect bacterial colonization significantly	significant reductions in buccal caries scores; also recorded: can significantly reduce the caries scores in vivo	3.9 ± 1.4 CFU/mL (×10^5)	2.2 ± 0.8 CFU/mL (×10^5)	2.2 ± 0.7	1.0 ± 0.3	3.6 ± 0.4	4.6 ± 0.2	6.6 ± 0.5	0.0 ± 0.0	11.2 ± 0.6	7.8 ± 0.4	1.0 ± 0.3	16.4 ± 2.2	
[F-].[Na+] [NaF, reference compound]					145 ± 12 g				2.8 ± 0.7 CFU/mL (×10^5)	1.6 ± 0.6 CFU/mL (×10^5)	0.4 ± 0.2	1.6 ± 0.5	1.6 ± 0.5	5.4 ± 0.4	3.2 ± 0.9	0.0 ± 0.0	10.4 ± 0.5	6.2 ± 0.9	0.0 ± 0.0	15.2 ± 0.7	oral bacterial community after Sm+CPD (beta diversity) ([1]; NaF-treated group, PERMANOVA, P-value>0.001 (so in the source)): the community was shifted; abundance of the Streptococcaceae family ([1]; second week, not sustained till the end of the study): increase in the abundance of the Streptococcaceae family
O=C1/C(=C/c2cc(O)c(O)c(O)c2)Oc2ccccc21 [HA6, 2-[(3′,4′,5′-Trihydroxyphenyl)methylidene]-2,3-dihydro-1-benzofuran-3-one]	without affecting the rat oral microbiome; also recorded: without perturbing the overall rat oral microbiome significantly; also recorded: do not perturb oral microbiome significantly	did not perturb the overall rat oral microbiome at phylum levels significantly	did not perturb the overall rat oral microbiome significantly within this phylum	without any significant deviations	165 ± 13 g	did not experience significant weight loss	did not affect bacterial colonization significantly	significant reductions in buccal caries scores; also recorded: can significantly reduce the caries scores in vivo	1.9 ± 0.5 CFU/mL (×10^5)	1.3 ± 0.4 CFU/mL (×10^5)	1.2 ± 0.5	1.6 ± 0.4	4.0 ± 0.7	6.4 ± 0.4	6.8 ± 0.5	0.0 ± 0.0	11.2 ± 0.7	8.2 ± 0.7	1.2 ± 0.8	14.6 ± 0.9	
